Data on 9 molecules can be found in patent publication US20250154266A1, “ACTIVIN SIGNALING ACTIVITY” (The Johns Hopkins University, priority 2022, published 2025).

Test [1] relates to Activin receptor-like kinase. Particulars: Table I, cited from earlier work; for Function: reported function in words; for Target: target profile in words.
Test [2] concerns ALK1, ALK2, ALK3 and ALK6. Particulars: in words; cited from earlier work.
Test [3] has as its system ALK1, ALK2, BMPR1A, ALK4, TGFBR1, BMPR1B, and ALK7. Particulars: in words; cited from earlier work.
Test [4] concerns SMAD phosphorylation in CD4+ T cells. The experiment in a line: Western blot analysis of SMAD phosphorylation in CD4+ T cells. The format is cell-based. Here is the method:
Since Activins have been reported to promote SMAD signaling in non-T cells (14), it was tested whether Activins signaling in T cells could have a similar effect. SMAD activity was assessed by western blot analysis of SMAD phosphorylation.
On the technique in general: A western blot detects proteins with antibodies after separation by electrophoresis.

For the next test, the system named is naive CD4+ T cells. Briefly: Foxp3 induction / Treg generation from naive CD4+ T cells. The test is classed as cell-based. Particulars: for Foxp3 induction (Foxp3+ cells): single agent, TGF-β at suboptimal concentration, Activin A in the absence of TGF-β. The source says:
Since […] mediated events are important during the up-regulation of Foxp3 and the generation of Tregs from naive CD4+ T cell precursors, it was investigated whether Activin A can drive the process. Without TGF-β, as expected, Foxp3 induction was minimal.

The mark [5] stands for this setting: single agent, Activin A 5 or 10 ng/ml, TGF-β 0.5 or 2 ng/ml.

For `Cc1cccc(-c2[nH]c(C(C)(C)C)nc2-c2ccc3nccnc3c2)n1` [SB-525334], in test [1], the Function entry is “SB-525334 has been demonstrated to block phosphorylation and Smad2/3 nuclear translocation, and inhibits renal fibrosis by reducing procollagen and PAI-1 expression”; the Target entry is “ALK4, 5, 7”.
For the molecule `Cc1cccc(-c2nn(C(=S)Nc3ccccc3)cc2-c2ccnc3ccccc23)n1` [Clone A-83-01, 3-(6-Methylpyridin-2-yl)-N-phenyl-4-(quinolin-4-yl)-1H-pyrazole-1-carbothioamide], the “inhibition of ALK1, ALK2, ALK3 and ALK6” value in test [2] is listed as “weak inhibitor”. Further, in test [1], the Function result is “A-83-01 can inhibit the activities of ALK4, 5 and 7. For other ALK receptors such as ALK1, 2, 3 and 6, A-83-01 showed weak inhibition. A-83- 01 was proved to reduce EMT”; the Target result is “Selective inhibitor for ALK4, 5 and 7, and weak effect on ALK1, 2, 3 and 6”.
With `c1ccc(-c2nc3c(c(-n4ccc5cnccc54)n2)CCC3)nc1` [AZ12601011], the targets result in test [3] is “targets ALK4 and ALK7 as well as TGFBR1”.
`c1ccc(-c2cc(-c3c[nH]nc3-c3ccccn3)ccn2)cc1` [GW-6604]: in test [1], the Function entry was “GW-6604 can prevent matrix deposition and promote hepatocyte regeneration as anti-cancer drug development”; the Target entry is given as “ALK4, 5, 7”.
For `Cc1cccc(-c2[nH]c(C(C)(C)C)nc2-c2ccc3c(c2)OCO3)n1` [SB-505124], the Target entry in test [1] was “ALK4, 5, 7”.
Turning to “TGF-β: cytokine, inducer of Foxp3 expression and SMAD signaling”, the “SMAD phosphorylation (phospho-SMAD)” value in test [4] (setting [5]) is “induced SMAD phosphorylation”. Also, the “Foxp3 induction (Foxp3+ cells)” value in the test on naive CD4+ T cells is reported as “modest up-regulation of Foxp3”.
As to `Cc1cccc(-c2nn3c(c2-c2ccnc4ccc(C(N)=O)cc24)CCC3)n1` (atropisomer, axis not shown) [LY-2157299], in test [1], the Function result was “LY-2157299 is now under phase II clinical studies of its anti- carcinoma activities against glioblastoma and hepatocellular carcinoma, and has also been reported that it inhibits the tumor growth in human lung anaplastic carcinoma cells and breast carcinoma cells”; the Target result is reported as “ALK4, 5, 7”.
Turning to `Fc1ccc(Cl)cc1-c1nc(Nc2ccncc2)c2nccnc2n1` [SD-208], in test [1], the Function entry is “SD-208 inhibits growth and invasiveness and enhances immunogenicity of murine and human glioma cells”; the Target result is “ALK4, 5, 7”.

B1: Activin A: dimeric member of the TGF-β Superfamily; two Activin βA subunits (protein, UniProt P08476 311-426, looked up)
Inhibin beta A chain: GLECDGKVNICCKKQFFVSFKDIGWNDWIIAPSGYHANYCEGECPSHIAGTSGSSLSFHSTVINHYRMRGHSPFANLKSCCVPTKLRPMSMLYYDDGQNIIKKDIQNMIVEECGCS
modifications: homodimer
For the molecule B1, the “SMAD phosphorylation (phospho-SMAD)” value was “even further activation of the SMAD signaling pathway” in test [4] (combined Activin A and TGF-β treatment); “elevation of phospho-SMAD” in test [4] (setting [5]). The “Foxp3+ T cell induction” value in the test with naive CD4+ T cells (combined treatment with Activin and TGF-β) is “synergistic promotion of Foxp3+ T cell induction”. The “Foxp3 induction (Foxp3+ cells)” value with naive CD4+ T cells was “comparable population of Foxp3+ cells”.
